The text below walks through data of PMC10302202, “The Finding of New In Vivo Metabolite Triptorelin (5-10) in Human Urine Using Liquid Chromatography Coupled with Ion Trap/Time-of-Flight Mass Spectrometry with Dimethyl Sulfoxide Additives in the Mobile Phase” (Molecules, 2023).

Non-standard residues stand in square brackets, D forms with d. Residues, ends and D or L forms follow the SMILES beside them.

A short description of data set [1]: Urine levels of triptorelin and triptorelin (5-10) in patients after triptorelin administration (LC/MS-IT-TOF). It counts as in vivo, human. Particulars: for detection level in urine, 3 h / detection level in urine, 6 h: first time, prostate cancer patient. As to the method: The column compartment temperature was set at 30 °C. The autosampler unit temperature was set at 10 °C. […] The spray voltage was set at 4 kV.
A further urine sample was collected one month later.
The injection volume was 30 μL. The total runtime is 9 min.

Data set [2] is described as follows: Urine levels of leuprorelin and leuprorelin (5-9) in patients after leuprorelin administration (LC/MS-IT-TOF). Particulars: SPE; for detection level in urine, 3 h / detection level in urine, 6 h: first time, prostate cancer patient.
Procedure: (§1) Sample analysis was carried out by using the LCMS-IT-TOF Prominence system (Shimadzu, Japan) and LC model UPLC 8040 [18]. The analytical column was a Poroshell 120 EC-C18 (2.1 mm × 150 mm, 2.7 μm particle) coupled with a guard column (SecurityGuard^TM C18, 3.0 mm). The column compartment temperature was set at 30 °C. The autosampler unit temperature was set at 10 °C. Dry gas was set at 47 kPa, and nebulizer gas was set at 1.5 L/min. The curved desolvation line (CDL) and heating block temperature were set at 250 °C. The spray voltage was set at 4 kV.
(§2) Urine samples were collected at the Division of Urology, Department of Surgery, Faculty of Medicine, Ramathibodi Hospital, Bangkok, Thailand. […] Urine samples were collected at 0.0, 3.0, and 6.0 h from 5 patients who had received either 11.25 mg of Enantone® L.P (leuprorelin acetate) or Diphereline® P.R. (triptorelin pamoate) intramuscularly for the first time.
(§3) In this study, 200 mL of sodium phosphate buffer (pH 6.8; 0.8 M) was added to a 3.0 mL aliquot of urine. The batch of samples was centrifuged at 5000 rpm for 5 min at 5 °C. The supernatant from each tube was transferred to a new set of protein LoBind® tubes, Eppendorf (Melbourne, Australia) and 20 μL of ISTD (see Section 4.3) was added to each sample [17]. SPE cartridges (see Section 4.1) were activated with 2 mL of methanol followed by 2 mL of ultra-pure water. The supernatants were slowly loaded onto the SPE cartridges (flow rate is approximately 1.0 mL/min) and washed with 1 mL of water, followed by 1 mL of freshly prepared 10% v/v aqueous methanol; then, all washing solutions were removed and dried using a vacuum pump. Elution was performed using freshly prepared 10% v/v formic acid in methanol. Eluates were evaporated at 45 °C to approximately 10 μL in a vacuum centrifuge. The residues were reconstituted in 50 μL of freshly prepared 0.1% formic acid in water.
(§4) The mobile phases were 0.1% formic acid in water with or without 1% DMSO (mobile phase A) and acetonitrile (mobile phase B) at a flow rate of 0.3 mL/min. The mobile phase gradient program was as follows: 0.0–2.0 min, 20 to 30% B; 2.0–4.0 min, 30 to 45% B; 4.0–5.0 min, 45 to 100% B; 5.0–6.0 min, hold at 100% B; 6.0–7.0 min, 100% to 20% B; and 7.0–9.0 min hold at 20% B (column equilibration). The injection volume was 30 μL. The total runtime is 9 min.
(§5) Mass spectrometric analysis was employed both in the full-scan mode and MS-MS mode. Data analysis was performed using 2 product ion transitions for each compound. LC/MS-IT-TOF mass spectrometric variables, including the m/z of product ions, ion accumulation time, and collision energy (CE), were optimized for maximum abundance for each ion transition. Ionization was performed using ESI in the positive ion mode at 3500 V. The ion accumulation time was 10 milliseconds, and the isolation width was 1.5 Dalton.
(§6) The mean and standard deviation of the concentration of leuprorelin, leuprorelin (5-9), triptorelin, and triptorelin (5-10) from 5 patients were used for statistical analysis.
The nature of data set [3]: clinical. The following applies: human, in vivo, im, 11.25 mg, detection level in urine, mean.
Procedure: as §1, §2, §3, §4, §5, §6
The conditions of data set [4]: in vivo; cited from earlier work.

On to `CC(C)C[C@H](NC(=O)[C@@H](Cc1c[nH]c2ccccc12)NC(=O)[C@H](Cc1ccc(O)cc1)NC(=O)[C@H](CO)NC(=O)[C@H](Cc1c[nH]c2ccccc12)NC(=O)[C@H](Cc1c[nH]cn1)NC(=O)[C@@H]1CCC(=O)N1)C(=O)N[C@@H](CCCNC(=N)N)C(=O)N1CCC[C@H]1C(=O)NCC(N)=O` [Triptorelin, triptorelin], for which the level at 3 h in data set [1] (human, urine, im, 11.25 mg, mean of n = 5 patients, urine 3 h after 11.25 mg Diphereline P.R. (triptorelin pamoate) intramuscularly, SPE, LC/MS-IT-TOF, read-out: detection level in urine, 3 h, mean) came out at 64.1 ng/mL. Also, in data set [1] (human, urine, im, 11.25 mg, mean of n = 5 patients, urine 6 h after 11.25 mg Diphereline P.R. (triptorelin pamoate) intramuscularly, SPE, LC/MS-IT-TOF, read-out: detection level in urine, 6 h, mean), the level at 6 h amounted to 62.6 ng/mL.

For the compound `CCNC(=O)[C@@H]1CCCN1C(=O)[C@H](CCCNC(=N)N)NC(=O)[C@H](CC(C)C)NC(=O)[C@@H](CC(C)C)NC(=O)[C@@H](N)Cc1ccc(O)cc1` [Leuprorelin (5-9), leuprorelin (5-9)] (H-Y[dL]LRP-NHEt), the “detection level in urine, 3 h, mean” value in data set [2] (mean of n = 5 patients, urine 3 h after 11.25 mg Enantone L.P (leuprorelin acetate) intramuscularly) turned out to be 74.8 ng/mL. Further, the “detection level in urine, 6 h, mean” value in data set [2] (mean of n = 5 patients, urine 6 h after 11.25 mg Enantone L.P (leuprorelin acetate) intramuscularly) was found to be 78.9 ng/mL. Further, the “detection level in urine, 3 h” value is reported as 68.0 ng/mL in data set [2] (patient 1, urine 3 h after 11.25 mg Enantone L.P (leuprorelin acetate) intramuscularly); 106.9 ng/mL in data set [2] (patient 2, urine 3 h after 11.25 mg Enantone L.P (leuprorelin acetate) intramuscularly); 162.9 ng/mL in data set [2] (patient 3, urine 3 h after 11.25 mg Enantone L.P (leuprorelin acetate) intramuscularly); 16.7 ng/mL in data set [2] (patient 4, urine 3 h after 11.25 mg Enantone L.P (leuprorelin acetate) intramuscularly); 19.3 ng/mL in data set [2] (patient 5, urine 3 h after 11.25 mg Enantone L.P (leuprorelin acetate) intramuscularly). Further, the “detection level in urine, 6 h” value in data set [2] (patient 1, urine 6 h after 11.25 mg Enantone L.P (leuprorelin acetate) intramuscularly) was 73.1 ng/mL; in data set [2] (patient 2, urine 6 h after 11.25 mg Enantone L.P (leuprorelin acetate) intramuscularly), 18.7 ng/mL; in data set [2] (patient 3, urine 6 h after 11.25 mg Enantone L.P (leuprorelin acetate) intramuscularly), 100.4 ng/mL; in data set [2] (patient 4, urine 6 h after 11.25 mg Enantone L.P (leuprorelin acetate) intramuscularly), 23.8 ng/mL; in data set [2] (patient 5, urine 6 h after 11.25 mg Enantone L.P (leuprorelin acetate) intramuscularly), 178.7 ng/mL.

Regarding `CC(C)C[C@H](NC(=O)[C@@H](Cc1c[nH]c2ccccc12)NC(=O)[C@@H](N)Cc1ccc(O)cc1)C(=O)N[C@@H](CCCNC(=N)N)C(=O)N1CCC[C@H]1C(=O)NCC(N)=O` [Triptorelin (5-10), triptorelin (5-10)] (H-Y[dW]LRPG-NH2), the “detection level in urine, 1 month, mean” value in data set [1] (mean line, n = 5 for triptorelin, n = 3 for triptorelin (5-10), urine 1 month after 11.25 mg Diphereline P.R. (triptorelin pamoate) intramuscularly, ND = not detectable) is recorded as 0.7 ng/mL. Also, the “detection level in urine, 3 h, mean” value in data set [1] (mean of n = 5 patients, urine 3 h after 11.25 mg Diphereline P.R. (triptorelin pamoate) intramuscularly, SPE, LC/MS-IT-TOF) was 105.5 ng/mL. Also, the “detection level in urine, 1 month” value was determined as 1.2 ng/mL in data set [1] (patient 1, urine 1 month after 11.25 mg Diphereline P.R. (triptorelin pamoate) intramuscularly, ND = not detectable, SPE, LC/MS-IT-TOF); 0.3 ng/mL in data set [1] (patient 2, urine 1 month after 11.25 mg Diphereline P.R. (triptorelin pamoate) intramuscularly, ND = not detectable, SPE, LC/MS-IT-TOF); 0.6 ng/mL in data set [1] (patient 5, urine 1 month after 11.25 mg Diphereline P.R. (triptorelin pamoate) intramuscularly, ND = not detectable, SPE, LC/MS-IT-TOF). The “detection level in urine, 3 h” value was determined as 84.3 ng/mL in data set [1] (patient 1, urine 3 h after 11.25 mg Diphereline P.R. (triptorelin pamoate) intramuscularly, SPE, LC/MS-IT-TOF); 25.3 ng/mL in data set [1] (patient 2, urine 3 h after 11.25 mg Diphereline P.R. (triptorelin pamoate) intramuscularly, SPE, LC/MS-IT-TOF); 12.8 ng/mL in data set [1] (patient 3, urine 3 h after 11.25 mg Diphereline P.R. (triptorelin pamoate) intramuscularly, SPE, LC/MS-IT-TOF); 225.7 ng/mL in data set [1] (patient 4, urine 3 h after 11.25 mg Diphereline P.R. (triptorelin pamoate) intramuscularly, SPE, LC/MS-IT-TOF); 179.1 ng/mL in data set [1] (patient 5, urine 3 h after 11.25 mg Diphereline P.R. (triptorelin pamoate) intramuscularly, SPE, LC/MS-IT-TOF). Also, the “detection level in urine, 6 h” value came to 24.7 ng/mL in data set [1] (patient 1, urine 6 h after 11.25 mg Diphereline P.R. (triptorelin pamoate) intramuscularly, SPE, LC/MS-IT-TOF); 43.5 ng/mL in data set [1] (patient 2, urine 6 h after 11.25 mg Diphereline P.R. (triptorelin pamoate) intramuscularly, SPE, LC/MS-IT-TOF); 3.2 ng/mL in data set [1] (patient 3, urine 6 h after 11.25 mg Diphereline P.R. (triptorelin pamoate) intramuscularly, SPE, LC/MS-IT-TOF); 250.6 ng/mL in data set [1] (patient 4, urine 6 h after 11.25 mg Diphereline P.R. (triptorelin pamoate) intramuscularly, SPE, LC/MS-IT-TOF); 202.0 ng/mL in data set [1] (patient 5, urine 6 h after 11.25 mg Diphereline P.R. (triptorelin pamoate) intramuscularly, SPE, LC/MS-IT-TOF).

For the compound `CCNC(=O)[C@@H]1CCCN1C(=O)[C@H](CCCNC(=N)N)NC(=O)[C@H](CC(C)C)NC(=O)[C@@H](CC(C)C)NC(=O)[C@H](Cc1ccc(O)cc1)NC(=O)[C@H](CO)NC(=O)[C@H](Cc1c[nH]c2ccccc12)NC(=O)[C@H](Cc1c[nH]cn1)NC(=O)[C@@H]1CCC(=O)N1` [Leuprorelin, leuprorelin], in data set [3] (3 h), the level at 3 h worked out at 65 ng/mL. The level at 6 h in data set [3] (6 h) came to 106 ng/mL.

Consider “GnRH: endogenous 10-amino-acid peptide synthesized and produced in the hypothalamus”, for which the half-life (as a rule, the time needed for the level to fall by half in the phase considered) in data set [4] is listed as 2 min.
